The values that follow come from patent US20130252945A1, “AMORPHOUS BIOINORGANIC IONIC LIQUID COMPOSITIONS COMPRISING PHARMACEUTICALS” (priority 2012, published 2013).

Values joined by “and” are separate entries in the source; they are usually repeats but may differ in a detail not shown here. Equal values may be shown once. Where a name gives a salt, the structure may show the parent alone.

Data set [1] is described as follows: Storage under Ar, observation for crystalline domains over 6 months. The format is physicochemical. Particulars: stored under Ar, observed over 6 months.
Data set [2] is described as follows: Viscosity (Viscolab 3000 viscometer). The format is physicochemical. Particulars: at 90° C. The procedure: (§1) Melting points of all purchased materials were determined in a capillary tube using a MeI-Temp apparatus (Barnstead/Thermo Scientific). NMR data sets were collected on a 300 MHz Bruker instrument using sample concentrations of 50 mM. Infrared spectra were measured using an Avatar 360 FT-IR ESP (ThermoElectron-Nicolet, Waltham, Mass.) equipped with a Smart DuraSamplIR horizontal attenuated total reflectance (HATR) accessory. Raman spectra were measured using a Thermo-Nicolet 470 FTIR with Nd:YAG laser excitation and HgCdTe detector. Viscosity was measured on 1 mL samples with a Viscolab 3000 viscometer (Cambridge Viscosity, Medford, Mass.). Samples were heated to 90° C., except when otherwise specified, and viscosity was recorded in 2 degree increments between 50 and 90° C. with 8 min equilibration at each temperature. Thermal characterization was carried out using a Q100 DSC and a Q500 TGA (both from TA Instruments, New Castle, Del.). DSC was performed using a 5-10 mg sample in a 40 μL aluminum crucible sealed in the glovebox. A temperature range from −60 to 150° C. was scanned twice, at ramp rates of 5° C./min and 10° C./min. TGA was performed under N2 atmosphere over a temperature range from 25-800° C. with a ramp rate of 20° C. per minute and a sample size of 10 mg.

The format of data set [3] is physicochemical. Particulars: 3 h incubation at a constant 120° C.
Data set [4] relates to Pseudomonas aeruginosa biofilms (clinical isolate from sputum). Put plainly: Challenge of established biofilms (72 h) with test compound, CFU count. Particulars: 6 h at 37° C. The format is cell-based.
The nature of data set [5]: Shelf life by model-free isoconversional kinetic analysis of TGA data. The format is physicochemical. The procedure:
Zinc(II) chloride (273 mg, 2 mmol) was added to a scintillation vial that had been heated, then cooled under vacuum and charged with dry argon. Phenoxybenzamine hydrochloride (340.3 mg, 1 mmol) was added to the vial with a stir bar and the mixture was degassed with stirring at 60° C. The vial was filled with argon, sealed with a cap, and stirred for 24 h at 80° C. to produce a clear, colorless glass. […] NMR spectra for ^1H and ^13C were obtained in d6-acetone. […] Spectra of phenoxybenzamine-HCl were performed with 0, 0.25, 0.5, 1.0, 1.5, 2.0, and 5.0 molar equivalents of ZnCl2 to observe this effect. Thermal decomposition after a 3 h incubation of the IL at a constant 120° C. was 2.7% of the starting mass. In contrast, the phenoxybenzamine hydrochloride starting material loses 38% of its mass after a similar incubation. The IL was soluble (>1 mM) in acetone, water and phosphate buffered to pH 6.0. The IL was insoluble (<1 mM) in toluene and tetrahydrofuran. […] The manufacturer's shelf life for 10 mg phenoxybenzamine hydrochloride tablets is 2 years, or 730 days, and the calculated value for solid phenoxybenzamine hydrochloride (5% decay at 20° C.) was 750 days (2.05 years), indicating good agreement of the calculation with actual shelf life. […]

The nature of data set [6]: Solubility at 1 mM in unbuffered water by eye and UV-Vis after filtration. The format is physicochemical. Particulars: unbuffered water (pH 6.5), by eye. The procedure:
Solubility of phenoxybenzamine hydrochloride and phenoxybenzamine-HCl—(ZnCl2)2 at 1 mM in unbuffered water (pH 6.5) was evaluated by eye and by UV-Vis spectroscopy after filtration through a 0.45 μm syringe filter.

The test system of data set [7] is Staphylococcus aureus culture. Put plainly: Biofilm growth on IL-coated culture plates. The format is cell-based. Particulars: 100 μL IL per well, counted after 72 h, limit of detection. The procedure: (§2) A second example of clear, colorless antimicrobial films formed by compositions described herein was shown with an assay that involved coating culture plates with IL and observing the biofilm growth on the coated surface. […] Aliquots of 100 μL of either a Staphylococcus aureus culture, an E. coli culture, or a Pseudomonas aeruginosa culture were added to each coated well, the plate was fed with fresh media every 24 h, and cells were counted after 72 h, as described above. The number of cells in the treated wells was below the limit of detection of the assay of 1000 cfu/mL, as compared with normal cell counts for the LB control wells, indicating high antimicrobial efficacy of the IL coating. Because bacteria colonize a surface prior to barnacles and other organisms, proof of antibacterial effects is key to showing anti-biofouling potential in aquatic environments.

The test system of data set [8] is Pseudomonas aeruginosa culture. Put plainly: Biofilm growth on IL-coated culture plates. The format is cell-based. Particulars: 100 μL IL per well, counted after 72 h, limit of detection. The protocol:
as §2

The next data set has as its system E. coli culture. Put plainly: Biofilm growth on IL-coated culture plates. The format is cell-based. Particulars: 100 μL IL per well, counted after 72 h, limit of detection. The protocol: as §2
Data set [9] is described as follows: Solubility in solvents (soluble / insoluble). Particulars: organic solvent or mixture.
The nature of data set [10]: Decomposition temperature by TGA. The format is physicochemical. Particulars: for Tdec (decomposition temperature): TGA under N2, 20° C. per minute. The procedure:
as §1

Usually solubility stands for how much of the substance goes into solution per volume.

`CN(C)CCCN1c2ccccc2CCc2ccccc21.Cl.[Cl][Zn][Cl].[Cl][Zn][Cl]` [Imipramine-HCl—(ZnCl2)2]: the “appearance of crystalline domains on storage” value (shortened to “appearance”) in data set [1] is “no crystalline domains appeared”.

Regarding Ethambutol-(HCl)2—(ZnCl2)2, in data set [1], the “appearance” value is given as “no crystalline domains appeared”. Moreover, the Viscosity in data set [2] worked out at 17350 cP.

Take `CC(COc1ccccc1)N(CCCl)Cc1ccccc1` (stereo not drawn) [phenoxybenzamine hydrochloride, Phenoxybenzamine hydrochloride, reference compound]: the “thermal decomposition (loss of starting mass)” value in data set [3] was determined as 38%.

`CCCC[N+]1(C)CCCC1.O=S(=O)([N-]S(=O)(=O)C(F)(F)F)C(F)(F)F` [BMP-NTf2, 1-butyl-1-methypyrrolidinium bistriflimide]: the “cell count of biofilm after challenge” value in [4] (neat) is given as 2×10^5.

Turning to `[Cl-].[Na+]` [NaCl], the “cell count of biofilm after challenge” value in data set [4] (5 M in LB, control for ionic strength) was 1×10^6 cells.

Regarding `CC(COc1ccccc1)N(CCCl)Cc1ccccc1.Cl.[Cl][Zn][Cl].[Cl][Zn][Cl]` (stereo not drawn) [phenoxybenzamine-HCl—(ZnCl2)2, Phenoxybenzamine-HCl—(ZnCl2)2], the “appearance” value in [1] was “no crystalline domains appeared”. For the same molecule, in [5] (at 20° C., 5% decomposition), the “improvement of shelf life over solid phenoxybenzamine hydrochloride” value came to 7.7 fold. In addition, the “improvement of shelf life over standard formulation in syrup and propylene glycol” value in data set [5] (compared with 4-day refrigerator shelf life) turned out to be 1500 fold. Moreover, in [6], the “solubility in unbuffered water (appeared to completely dissolve)” value is ≥ 1 mM and ≥ 0.34 mg/mL. Further, the “thermal decomposition (loss of starting mass)” value in data set [3] is listed as 2.7%.

With `[Cl-].[Cl-].[Zn+2]` [ZnCl2, Zinc(II) chloride], the “cell count of biofilm after challenge” value in data set [4] (1.8 M in LB) is listed as 4×10^5.

On to `CC(C)(C)CC(C)(C)c1ccc(OCCOCC[N+](C)(C)Cc2ccccc2)cc1` [benzethonium-Cl—(ZnCl2)2, Benzethonium-Cl—(ZnCl2)2], for which the “number of cells in treated (IL-coated) wells” value (in data set [7]; in [8]; in the data set on E. coli culture) was less than 1000 cfu/mL each time.

For `CN1[C@@H]2CC[C@H]1CC(OC(=O)C(O)c1ccccc1)C2` (stereo partly drawn) [Homatropine-HCl—(ZnCl2)2], in [1], the “appearance” value is recorded as “no crystalline domains appeared”. In addition, the solubility is greater than 1000 µM in data set [9] (dimethylsulfoxide) and less than 1000 µM in data set [9] (toluene). In addition, the “ΔTdec (increase in decomposition temperature relative to HCl starting material)” value in data set [10] (TGA) is “+7.8 °C”.

Consider Procainamide-HCl—(ZnCl2)2, for which the “appearance” value in [1] is given as “no crystalline domains appeared”. Further, the “Tdec (decomposition temperature)” value in data set [10] came to 291.0 °C.

Regarding `CC(C)(C)CC(C)(C)c1ccc(OCCOCC[N+](C)(C)Cc2ccccc2)cc1` [benzethonium chloride, Benzethonium chloride], the “viable dispersed cell count (conservative estimate)” value in data set [4] (78 mM in LB, formed precipitate) is given as ~5×10^4 cfu/mL.

On to `CNC(=C[N+](=O)[O-])NCCSCc1ccc(CN(C)C)o1.Cl.[Cl][Zn][Cl].[Cl][Zn][Cl]`, for which the “appearance” value in [1] is on record as “no crystalline domains appeared”. The “Tdec (decomposition temperature)” value in data set [10] worked out at 230.9 °C.
